ChEMBL document CHEMBL1155673, “Yanucamides A and B, two new depsipeptides from an assemblage of the marine cyanobacteria Lyngbya majuscula and Schizothrix species” (J Nat Prod, 2000)

System: Artemia salina
Assay: Toxicity against Artemia salina after 24 hrs
Format: organism-based
Conditions: in vivo

Row | Compound | LD50 [ppm]
1 | C#CCCCC1OC(=O)CCNC(=O)[C@@H](Cc2ccccc2)N(C)C(=O)[C@H](C(C)C)OC(=O)[C@H]([C@H](C)CC)NC(=O)C1(C)C (some centres not stated) [YANUCAMIDE B] | 5
2 | C#CCCCC1OC(=O)CCNC(=O)[C@@H](Cc2ccccc2)N(C)C(=O)[C@H](C(C)C)OC(=O)[C@H](C(C)C)NC(=O)C1(C)C (some centres not stated) [YANUCAMIDE A] | 5
